Among the data in patent publication US20180162862A1 (President and Fellows of Harvard College, priority 2015, published 2018) are MIC values, retold here.

Assay [1] has as its system S. aureus ATCC 29213. The assay can be described thus: MIC test according to CLSI M7-A9, S. aureus ATCC 29213. It counts as cell-based. To be noted: Staphylococcus aureus, read-out: S. aureus ATCC 29213 MIC at 24 h. The method, then: (§1) MIC Test (S. aureus ATCC 29213, S. aureus ATCC 43300 and S. aureus Newman)
(§2) Susceptibility testing of S. aureus ATCC 29213, ATCC 43300 and Newman was performed according to Clinical Laboratory Standard Institute (CLSI) guidelines M7-A9. Test articles were stored at room temperature prior to use, then dissolved in filtered sterile DMSO. Stock DMSO solutions were diluted further in cation-adjusted Mueller Hinton broth (CAMHB) to provide appropriate test concentrations. Cultures of S. aureus (ATCC 29213, ATCC 43300 or Newman) were added in accordance with CLSI guidelines and plates incubated at 37° C. in air for 24 h. Endpoints were determined visually (and by spectrophotometer at 600 nm) and the minimum inhibitory concentration (MIC) defined as the lowest concentration of test articles resulting in complete inhibition of visible bacterial growth. Results are detailed in Table 2 (S. aureus ATCC 29213 and ATCC 43300) and Table 3 (S. aureus ATCC 29213, ATCC 43300 and Newman).

The subject of assay [2] is S. aureus ATCC 43300. In words: MIC test according to CLSI M7-A9, S. aureus ATCC 43300. The assay is classed as cell-based. Conditions: Staphylococcus aureus, read-out: S. aureus ATCC 43300 MIC at 24 h. As for the experimental part:
as §1, §2

[3] abbreviates: ATCC29213, CLSI M7-A9, CAMHB, 24 h (Table 2).
Where [4] appears, read: ATCC43300, CLSI M7-A9, CAMHB, 24 h (Table 2).

Structures are written as SMILES. ≈ marks a conversion by molar mass, not a printed value. Read-outs that look alike come from different tables or passages of the source.

Take `CN1CCN(c2nc(-c3ccc(C(C)(C)C)cc3)nc3cc(=O)[nH]n23)CC1` [Example 18, 2-(4-tert-butylphenyl)-4-(4-methylpiperazin-1-yl)-6H,7H-pyrazolo[1,5-a][1,3,5]triazin-7-one]: the MIC in assay [1] (setting [3]) and in assay [2] (setting [4]) was 64 µg/mL (≈ 175 µM) each time.

On to `CC(C)(C)c1ccc(-c2nc(N3CCC(O)CC3)n3[nH]c(=O)cc3n2)cc1` [Example 20, 2-(4-tert-butylphenyl)-4-(4-hydroxypiperidin-1-yl)-6H,7H-pyrazolo[1,5-a][1,3,5]triazin-7-one], for which the MIC is 64 µg/mL (≈ 174 µM) in assay [1] (setting [3]) and 128 µg/mL (≈ 348 µM) in assay [2] (setting [4]).

As to `CC(C)(C)c1ccc(-c2nc(N3CCC(OCc4ccccc4)CC3)n3[nH]c(=O)cc3n2)cc1` [Example 21, 4-[4-(benzyloxy)piperidin-1-yl]-2-(4-tert-butylphenyl)-6H,7H-pyrazolo[1,5-a][1,3,5]triazin-7-one], the MIC is 32 µg/mL (≈ 69.9 µM) in assay [1] (setting [3]) and more than 128 µg/mL in assay [2] (setting [4]).

For the compound `CC(C)(C)c1ccc(-c2nc(NCCCO)n3[nH]c(=O)cc3n2)cc1` [Example 22, 2-(4-tert-butylphenyl)-4-[(3-hydroxypropyl)amino]-6H,7H-pyrazolo[1,5-a][1,3,5]triazin-7-one], the MIC in assay [1] (setting [3]) worked out at 8 µg/mL (≈ 23.4 µM); in assay [2] (setting [4]), 32 µg/mL (≈ 93.7 µM).

For `CC(C)(C)c1ccc(-c2nc(NCCCc3ccccc3)n3[nH]c(=O)cc3n2)cc1` [Example 23, 2-(4-tert-butylphenyl)-4-[(3-phenylpropyl)amino]-6H,7H-pyrazolo[1,5-a][1,3,5]triazin-7-one], the MIC in assay [1] (setting [3]) and in assay [2] (setting [4]) was 4 µg/mL (≈ 9.96 µM) throughout.

On to `CC(C)(C)c1ccc(-c2nc(NCCCn3ccnc3)n3[nH]c(=O)cc3n2)cc1` [Example 24, 2-(4-tert-butylphenyl)-4-{[3-(1H-imidazol-1-yl)propyl]amino}-6H,7H-pyrazolo[1,5-a][1,3,5]triazin-7-one], for which the MIC in assay [1] (ATCC29213, 24 h) is 64 µg/mL (≈ 163 µM); in assay [2] (ATCC43300, 24 h) it was 64 µg/mL (≈ 163 µM).

As to `CN(C)CCNc1nc(-c2ccc(C(C)(C)C)cc2)nc2cc(=O)[nH]n12` [Example 25, 2-(4-tert-butylphenyl)-4-{[2-(dimethylamino)ethyl]amino}-6H,7H-pyrazolo[1,5-a][1,3,5]triazin-7-one], the MIC worked out at 64 µg/mL (≈ 181 µM) in assay [1] (setting [3]) and 32 µg/mL (≈ 90.3 µM) in assay [2] (setting [4]).

As to `CC(C)(O)CNc1nc(-c2ccc(C(C)(C)C)cc2)nc2cc(=O)[nH]n12` [Example 26, 2-(4-tert-butylphenyl)-4-[(2-hydroxy-2-methylpropyl)amino]-6H,7H-pyrazolo[1,5-a][1,3,5]triazin-7-one], the MIC in assay [1] (setting [3]) and in assay [2] (setting [4]) was 32 µg/mL (≈ 90 µM) each time.

With `CN(C)c1nc(-c2ccc(C(C)(C)C)cc2)nc2cc(=O)[nH]n12` [Example 32, 2-(4-tert-butylphenyl)-4-(dimethylamino)-6H,7H-pyrazolo[1,5-a][1,3,5]triazin-7-one], the MIC was more than 32 µg/mL in assay [1] (setting [3]) and 32 µg/mL (≈ 103 µM) in assay [2] (setting [4]).

Consider `CC(C)(C)c1ccc(-c2nc(NCCCOc3ccccc3)n3[nH]c(=O)cc3n2)cc1` [Example 33, 2-(4-tert-butylphenyl)-4-[(3-phenoxypropyl)amino]-6H,7H-pyrazolo[1,5-a][1,3,5]triazin-7-one], for which the MIC in assay [1] (setting [3]) and in assay [2] (setting [4]) was 8 µg/mL (≈ 19.2 µM) in each case.

In the case of `CCCCN(C)c1nc(-c2ccc(C(C)(C)C)cc2)nc2cc(=O)[nH]n12` [Example 34, 4-[butyl(methyl)amino]-2-(4-tert-butylphenyl)-6H,7H-pyrazolo[1,5-a][1,3,5]triazin-7-one], the MIC in assay [1] (setting [3]) and in assay [2] (setting [4]) was 16 µg/mL (≈ 45.3 µM) each time.

In the case of `CC(C)(C)c1ccc(-c2nc(NC3CCN(Cc4ccccc4)CC3)n3[nH]c(=O)cc3n2)cc1` [Example 35, 4-[(1-benzylpiperidin-4-yl)amino]-2-(4-tert-butylphenyl)-6H,7H-pyrazolo[1,5-a][1,3,5]triazin-7-one], the MIC in assay [1] (setting [3]) and in assay [2] (setting [4]) was 8 µg/mL (≈ 17.5 µM) throughout.

In the case of `CC(C)(C)c1ccc(-c2nc(NC3CCCCC3)n3[nH]c(=O)cc3n2)cc1` [Example 36, 2-(4-tert-butylphenyl)-4-(cyclohexylamino)-6H,7H-pyrazolo[1,5-a][1,3,5]triazin-7-one], the MIC in assay [1] (setting [3]) and in assay [2] (setting [4]) was 8 µg/mL (≈ 21.9 µM) each time.

On to `CC(C)(C)c1ccc(-c2nc(NCCCNC3CCCCC3)n3[nH]c(=O)cc3n2)cc1` [Example 39, 2-(4-tert-butylphenyl)-4-{[3-(cyclohexylamino)propyl]amino}-6H,7H-pyrazolo[1,5-a][1,3,5]triazin-7-one], for which the MIC in assay [1] (setting [3]) and in assay [2] (setting [4]) was 32 µg/mL (≈ 75.7 µM) throughout.

Turning to `CC(C)(C)c1ccc(-c2nc(NCCCN3CCC(O)CC3)n3[nH]c(=O)cc3n2)cc1` [Example 40, 2-(4-tert-butylphenyl)-4-{[3-(4-hydroxypiperidin-1-yl)propyl]amino}-6H,7H-pyrazolo[1,5-a][1,3,5]triazin-7-one], the MIC in assay [1] (setting [3]) and in assay [2] (setting [4]) was 128 µg/mL (≈ 301 µM) in each case.

Regarding `CC(C)(C)c1ccc(-c2nc(NCCCN3CCOCC3)n3[nH]c(=O)cc3n2)cc1` [Example 41, 2-(4-tert-butylphenyl)-4-{[3-(morpholin-4-yl)propyl]amino}-6H,7H-pyrazolo[1,5-a][1,3,5]triazin-7-one], the MIC in assay [1] (setting [3]) and in assay [2] (setting [4]) was 128 µg/mL (≈ 312 µM) each time.

On to `CC(C)(C)c1ccc(-c2nc(NCCCNC3Cc4ccccc4C3)n3[nH]c(=O)cc3n2)cc1` [Example 42, 2-(4-tert-butylphenyl)-4-({3-[(2,3-dihydro-1H-inden-2-yl)amino]propyl}amino)-6H,7H-pyrazolo[1,5-a][1,3,5]triazin-7-one], for which the MIC in assay [1] (setting [3]) and in assay [2] (setting [4]) was 8 µg/mL (≈ 17.5 µM) in each case.

For `CC(C)(C)c1ccc(-c2nc(NCCCNc3ccccc3)n3[nH]c(=O)cc3n2)cc1` [Example 43, 2-(4-tert-butylphenyl)-4-{[3-(phenylamino)propyl]amino}-6H,7H-pyrazolo[1,5-a][1,3,5]triazin-7-one], the MIC in assay [1] (setting [3]) and in assay [2] (setting [4]) was 8 µg/mL (≈ 19.2 µM) throughout.

As to `CC(C)(C)c1ccc(-c2nc(NCCCN3Cc4ccccc4C3)n3[nH]c(=O)cc3n2)cc1` [Example 44, 2-(4-tert-butylphenyl)-4-{[3-(2,3-dihydro-1H-isoindol-2-yl)propyl]amino}-6H,7H-pyrazolo[1,5-a][1,3,5]triazin-7-one], the MIC is 64 µg/mL (≈ 145 µM) in assay [1] (setting [3]) and more than 128 µg/mL in assay [2] (setting [4]).

For the compound `CC(C)(C)c1ccc(-c2nc(NCCCOc3cnccn3)n3[nH]c(=O)cc3n2)cc1` [Example 50, 2-(4-tert-butylphenyl)-4-{[3-(pyrazin-2-yloxy)propyl]amino}-6H,7H-pyrazolo[1,5-a][1,3,5]triazin-7-one], the MIC in assay [1] (setting [3]) and in assay [2] (setting [4]) was more than 32 µg/mL in each case.

Take `CC(C)(C)c1ccc(-c2nc(NCCCn3ccncc3=O)n3[nH]c(=O)cc3n2)cc1` [Example 51, 1-(3-{[2-(4-tert-butylphenyl)-7-oxo-6H,7H-pyrazolo[1,5-a][1,3,5]triazin-4-yl]amino}propyl)-1,2-dihydropyrazin-2-one]: the MIC in assay [1] (setting [3]) and in assay [2] (setting [4]) was more than 64 µg/mL throughout.

With `Cc1cc(NC2CCN(c3nc(-c4ccc(C(C)(C)C)cc4)nc4cc(=O)[nH]n34)CC2)ccc1Cl` [Example 54, 2-(4-tert-butylphenyl)-4-{4-[(4-chloro-3-methylphenyl)amino]piperidin-1-yl}-6H,7H-pyrazolo[1,5-a][1,3,5]triazin-7-one], the MIC in assay [1] (setting [3]) and in assay [2] (setting [4]) was 4 µg/mL (≈ 8.15 µM) throughout.

Regarding `Cc1ncc(CN2CCC(Nc3nc(-c4ccc(C(C)(C)C)cc4)nc4cc(=O)[nH]n34)CC2)[nH]1` [Example 55, 2-(4-tert-butylphenyl)-4-({1-[(2-methyl-1H-imidazol-5-yl)methyl]piperidin-4-yl}amino)-6H,7H-pyrazolo[1,5-a][1,3,5]triazin-7-one], the MIC in assay [1] (setting [3]) and in assay [2] (setting [4]) was 32 µg/mL (≈ 69.5 µM) in each case.

For the compound `CC(C)(C)c1ccc(-c2nc(NC3CCC(NCc4ccccc4)CC3)n3[nH]c(=O)cc3n2)cc1` (stereo not drawn) [Example 56, 4-{[4-(benzylamino)cyclohexyl]amino}-2-(4-tert-butylphenyl)-6H,7H-pyrazolo[1,5-a][1,3,5]triazin-7-one], the MIC in assay [1] (setting [3]) turned out to be 16 µg/mL (≈ 34 µM); in assay [2] (setting [4]) it was 8 µg/mL (≈ 17 µM).

As for `Cc1cc(NCC2CN(c3nc(-c4ccc(C(C)(C)C)cc4)nc4cc(=O)[nH]n34)C2)ccc1Cl` [Example 57, 2-(4-tert-butylphenyl)-4-(3-{[(4-chloro-3-methylphenyl)amino]methyl}azetidin-1-yl)-6H,7H-pyrazolo[1,5-a][1,3,5]triazin-7-one], the figures for the MIC in assay [1] (setting [3]) and in assay [2] (setting [4]) were 4 µg/mL (≈ 8.39 µM) and 8 µg/mL (≈ 16.8 µM), respectively.

In the case of `Cc1ccc(S(=O)(=O)CCCNc2nc(-c3ccc(C(C)(C)C)cc3)nc3cc(=O)[nH]n23)cc1C` [Example 58, 2-(4-tert-butylphenyl)-4-{[3-(3,4-dimethylbenzenesulfonyl)propyl]amino}-6H,7H-pyrazolo[1,5-a][1,3,5]triazin-7-one], the MIC in assay [1] (setting [3]) and in assay [2] (setting [4]) was 64 µg/mL (≈ 130 µM) in each case.

Regarding `Cc1cc(OCC(O)CNc2nc(-c3ccc(C(C)(C)C)cc3)nc3cc(=O)[nH]n23)ccc1Cl` (stereo not drawn) [Example 60, 2-(4-tert-butylphenyl)-4-{[3-(4-chloro-3-methylphenoxy)-2-hydroxypropyl]amino}-6H,7H-pyrazolo[1,5-a][1,3,5]triazin-7-one], the MIC was 4 µg/mL (≈ 8.3 µM) in assay [1] (setting [3]) and 8 µg/mL (≈ 16.6 µM) in assay [2] (setting [4]).
